Assay results as given in patent US12281149B2, “Modulators of G-protein coupled receptors” (priority 2021, dated 2025).
*1 amine or outer side, *2 acyl side, *3 side chain or, on linkers, in order; H or OH if unused. Where a SMILES comes first, the peptide text is derived from it. Side-chain parts run from the residue outwards. [ ]: non-standard residue; d: D form. The star is where a group is joined. Isobutyryl(2-(3-CN-5-F-Ph)) = CC(C)(C(=O)*)c1cc(F)cc(C#N)c1; C20 diacid = O=C(O)CCCCCCCCCCCCCCCCCCC(=O)*; βPro(3S) = O=C([C@H]1CCN([*:1])C1)[*:2]; γGlu = O=C(O)[C@H](CCC(=O)[*:2])N[*:1]; X38 = CC(C)(C(=O)*)c1cc(O)cc(F)c1; X11 = C[C@@H](C(=O)*)c1ccccc1; AEEA = NCCOCCOCC(=O)O; Aib = CC(C)(N)C(=O)O; CO = O=C([*:1])[*:2]; βAla = NCCC(=O)O; NHPr = CCCN*

Experiments:
Type in all cases: cell-based
[1] = molecular target: T1, GLP-1 receptor (Homo sapiens, UniProt P43220); assay: HitHunter cAMP assay, GLP-1 receptor; conditions: for EC50: CHO cells stably expressing human GLP-1 receptor, cAMP accumulation, 30 min, read-out: EC50 GLP-1R; for Emax: CHO cells, cAMP, normalized to maximum signal from GLP-1 (high) and DMSO (low), read-out: Emax GLP-1R
T1 sequence (P43220 24-463): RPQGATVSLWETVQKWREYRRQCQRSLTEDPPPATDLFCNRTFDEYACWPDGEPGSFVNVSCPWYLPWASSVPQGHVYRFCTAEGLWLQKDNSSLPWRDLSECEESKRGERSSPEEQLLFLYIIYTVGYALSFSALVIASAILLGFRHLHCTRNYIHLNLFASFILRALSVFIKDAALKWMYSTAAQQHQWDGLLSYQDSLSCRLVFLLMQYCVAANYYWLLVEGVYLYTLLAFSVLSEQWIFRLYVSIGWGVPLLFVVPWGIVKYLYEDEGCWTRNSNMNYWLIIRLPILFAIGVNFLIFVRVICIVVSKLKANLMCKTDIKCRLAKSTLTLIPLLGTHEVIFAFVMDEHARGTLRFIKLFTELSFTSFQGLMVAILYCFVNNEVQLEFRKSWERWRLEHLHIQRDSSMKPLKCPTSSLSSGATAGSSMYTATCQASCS

[2] = molecular target: T2, GIP receptor (Homo sapiens, UniProt P48546); assay: HitHunter cAMP assay, GIP receptor; conditions: for EC50: CHO cells stably expressing GIP receptor, cAMP accumulation, 30 min, read-out: EC50 GIP-1R; for Emax: CHO cells, cAMP, normalized to maximum signal from GIP (high) and DMSO (low), read-out: Emax GIP-1R
T2 sequence (P48546 22-466): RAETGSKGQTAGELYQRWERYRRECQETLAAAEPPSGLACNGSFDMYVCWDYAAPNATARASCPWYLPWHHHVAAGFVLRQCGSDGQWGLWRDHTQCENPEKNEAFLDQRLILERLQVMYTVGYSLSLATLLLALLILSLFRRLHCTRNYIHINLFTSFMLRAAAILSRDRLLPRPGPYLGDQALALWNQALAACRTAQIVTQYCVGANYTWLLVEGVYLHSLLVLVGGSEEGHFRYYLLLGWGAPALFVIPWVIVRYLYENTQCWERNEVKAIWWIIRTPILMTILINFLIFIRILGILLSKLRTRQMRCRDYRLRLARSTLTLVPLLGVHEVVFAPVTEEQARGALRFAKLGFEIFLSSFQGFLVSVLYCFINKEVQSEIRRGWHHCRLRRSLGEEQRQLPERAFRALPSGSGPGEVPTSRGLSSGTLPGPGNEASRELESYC

[3] = molecular target: T2, GIP receptor; assay: PathHunter β-arrestin assay, GIP receptor; set-up: host or cells: PathHunter CHO-K1 GIPR β-Arrestin Cell Line; conditions: β-arrestin-2 recruitment, PathHunter CHO-K1 GIPR β-Arrestin Cell Line, 90 min at 37° C.; normalized to GIP; read-out: GIPR β Arrestin EC50
[4] = molecular target: T1, GLP-1 receptor; assay: PathHunter β-arrestin assay, GLP-1 receptor; set-up: host or cells: PathHunter CHO-K1 GLP1R β-Arrestin Cell Line; conditions: β-arrestin-2 recruitment, PathHunter CHO-K1 GLP1R β-Arrestin Cell Line, 90 min at 37° C.; normalized to GLP-1; read-out: GLP-1R β Arrestin EC50

| Compound | EC50 [1] [nM] | Emax [1] [%] | EC50 [2] [nM] | Emax [2] [%] | EC50 [3] [nM] | EC50 [4] [nM] |
| --- | --- | --- | --- | --- | --- | --- |
| CC[C@H](C)[C@H](NC(=O)[C@H](CC(C)C)NC(=O)[C@H](Cc1c[nH]c2ccccc12)NC(=O)[C@H](CCC(N)=O)NC(=O)[C@@H](NC(=O)[C@H](Cc1ccccc1)NC(=O)[C@H](C)NC(=O)[C@H](CCCCNC(=O)COCCOCCNC(=O)COCCOCCNC(=O)CC[C@H](NC(=O)CCCCCCCCCCCCCCCCCCC(=O)O)C(=O)O)NC(=O)[C@H](CCC(N)=O)NC(=O)[C@H](C)NC(=O)[C@@H](NC(=O)[C@H](CCCCN)NC(=O)[C@H](CC(=O)O)NC(=O)[C@H](CC(C)C)NC(=O)C(C)(C)NC(=O)[C@@H](NC(=O)[C@H](CO)NC(=O)[C@H](Cc1ccc(O)cc1)NC(=O)[C@H](CC(=O)O)NC(=O)[C@H](CO)NC(=O)[C@@H](NC(=O)[C@H](Cc1ccccc1)NC(=O)[C@@H](NC(=O)CNC(=O)[C@H](CCC(=O)O)NC(=O)CCNC(=O)[C@H](C)c1ccccc1)[C@@H](C)O)[C@@H](C)O)[C@@H](C)CC)[C@@H](C)CC)C(C)C)C(=O)N[C@@H](C)C(=O)NCC(=O)NCC(=O)N1CCC[C@H]1C(=O)N[C@@H](CO)C(=O)N[C@@H](CO)C(=O)NCC(=O)N[C@@H](C)C(=O)N1CCC[C@H]1C(=O)N1CCC[C@H]1C(=O)N1CCC[C@H]1C(=O)N[C@@H](CO)C(N)=O [Compound 204] ({X11-βAla}-EGTFTSDYSI[Aib]LDKIAQK([AEEA-AEEA-γGlu-C20 diacid])AFVQWLIAGGPSSGAPPPS-NH2) | 1 to 10 | 106 | 10 to 100 | 105 | > 1000 | > 1000 |
| CC[C@H](C)[C@H](NC(=O)[C@H](CC(C)C)NC(=O)[C@H](Cc1c[nH]c2ccccc12)NC(=O)[C@H](CCC(N)=O)NC(=O)[C@@H](NC(=O)[C@H](Cc1ccccc1)NC(=O)[C@H](C)NC(=O)[C@H](CCCCNC(=O)COCCOCCNC(=O)COCCOCCNC(=O)CC[C@H](NC(=O)CCCCCCCCCCCCCCCCCCC(=O)O)C(=O)O)NC(=O)[C@H](CCC(N)=O)NC(=O)[C@H](C)NC(=O)[C@@H](NC(=O)[C@H](CCCCN)NC(=O)[C@H](CC(=O)O)NC(=O)[C@H](CC(C)C)NC(=O)C(C)(C)NC(=O)[C@@H](NC(=O)[C@H](CO)NC(=O)[C@H](Cc1ccc(O)cc1)NC(=O)[C@H](CC(=O)O)NC(=O)[C@H](CO)NC(=O)[C@@H](NC(=O)[C@H](Cc1ccccc1)NC(=O)[C@@H](NC(=O)CNC(=O)[C@H](CCC(=O)O)NC(=O)CCNC(=O)C(C)(C)c1cc(O)cc(F)c1)[C@@H](C)O)[C@@H](C)O)[C@@H](C)CC)[C@@H](C)CC)C(C)C)C(=O)N[C@@H](C)C(=O)NCC(=O)NCC(=O)N1CCC[C@H]1C(=O)N[C@@H](CO)C(=O)N[C@@H](CO)C(=O)NCC(=O)N[C@@H](C)C(=O)N1CCC[C@H]1C(=O)N1CCC[C@H]1C(=O)N1CCC[C@H]1C(=O)N[C@@H](CO)C(N)=O [Compound 117] ({X38-βAla}-EGTFTSDYSI[Aib]LDKIAQK([AEEA-AEEA-γGlu-C20 diacid])AFVQWLIAGGPSSGAPPPS-NH2) | 0.1 to 1 | 96 | 1 to 10 | 100 | > 1000 | > 1000 |
| CC[C@H](C)[C@H](NC(=O)[C@H](CC(C)C)NC(=O)[C@H](Cc1c[nH]c2ccccc12)NC(=O)[C@H](CCC(N)=O)NC(=O)[C@@H](NC(=O)[C@H](Cc1ccccc1)NC(=O)[C@H](C)NC(=O)[C@H](CCCCNC(=O)COCCOCCNC(=O)COCCOCCNC(=O)CC[C@H](NC(=O)CCCCCCCCCCCCCCCCCCC(=O)O)C(=O)O)NC(=O)[C@H](CCC(N)=O)NC(=O)[C@H](C)NC(=O)[C@@H](NC(=O)[C@H](CCCCN)NC(=O)[C@H](CC(=O)O)NC(=O)[C@H](CC(C)C)NC(=O)C(C)(C)NC(=O)[C@@H](NC(=O)[C@H](CO)NC(=O)[C@H](Cc1ccc(O)cc1)NC(=O)[C@H](CC(=O)O)NC(=O)[C@H](CO)NC(=O)[C@@H](NC(=O)[C@H](Cc1ccccc1)NC(=O)[C@@H](NC(=O)CNC(=O)[C@H](CCC(=O)O)NC(=O)[C@H]1CCN(C(=O)C(C)(C)c2cc(F)cc(C#N)c2)C1)[C@@H](C)O)[C@@H](C)O)[C@@H](C)CC)[C@@H](C)CC)C(C)C)C(=O)N[C@@H](C)C(=O)NCC(=O)NCC(=O)N1CCC[C@H]1C(=O)N[C@@H](CO)C(=O)N[C@@H](CO)C(=O)NCC(=O)N[C@@H](C)C(=O)N1CCC[C@H]1C(=O)N1CCC[C@H]1C(=O)N1CCC[C@H]1C(=O)N[C@@H](CO)C(N)=O [Compound 195] ({Isobutyryl(2-(3-CN-5-F-Ph))}-[βPro(3S)]EGTFTSDYSI[Aib]LDKIAQK([AEEA-AEEA-γGlu-C20 diacid])AFVQWLIAGGPSSGAPPPS-NH2) | 100 to 1000 | 51 | 100 to 1000 | 72 | > 1000 | > 1000 |
| CC[C@H](C)[C@H](NC(=O)[C@H](CC(C)C)NC(=O)[C@H](Cc1c[nH]c2ccccc12)NC(=O)[C@H](CC(N)=O)NC(=O)[C@@H](NC(=O)[C@H](Cc1ccccc1)NC(=O)[C@H](C)NC(=O)[C@H](CCCCNC(=O)COCCOCCNC(=O)COCCOCCNC(=O)CC[C@H](NC(=O)CCCCCCCCCCCCCCCCCCC(=O)O)C(=O)O)NC(=O)[C@H](CCC(N)=O)NC(=O)[C@H](C)NC(=O)[C@@H](NC(=O)[C@H](CCCCN)NC(=O)[C@H](CC(=O)O)NC(=O)[C@H](CC(C)C)NC(=O)C(C)(C)NC(=O)[C@@H](NC(=O)[C@H](CO)NC(=O)[C@H](Cc1ccc(O)cc1)NC(=O)[C@H](CC(=O)O)NC(=O)[C@H](CO)NC(=O)[C@@H](NC(=O)[C@H](Cc1ccccc1)NC(=O)[C@@H](NC(=O)CNC(=O)[C@H](CCC(=O)O)NC(=O)CCNC(=O)C(C)(C)c1cc(F)cc(C#N)c1)[C@@H](C)O)[C@@H](C)O)[C@@H](C)CC)[C@@H](C)CC)C(C)C)C(=O)N[C@@H](C)C(=O)NCC(=O)NCC(=O)N1CCC[C@H]1C(=O)N[C@@H](CO)C(=O)N[C@@H](CO)C(=O)NCC(=O)N[C@@H](C)C(=O)N1CCC[C@H]1C(=O)N1CCC[C@H]1C(=O)N1CCC[C@H]1C(=O)N[C@@H](CO)C(N)=O [Compound 182] ({Isobutyryl(2-(3-CN-5-F-Ph))-βAla}-EGTFTSDYSI[Aib]LDKIAQK([AEEA-AEEA-γGlu-C20 diacid])AFVNWLIAGGPSSGAPPPS-NH2) | 0.1 to 1 | 96 | 10 to 100 | 98 | < 1000 | > 1000 |
| CCCNC(=O)NC(C)(C)C(=O)NCCC(=O)N[C@@H](CCC(=O)O)C(=O)NCC(=O)N[C@H](C(=O)N[C@@H](Cc1ccccc1)C(=O)N[C@H](C(=O)N[C@@H](CO)C(=O)N[C@@H](CC(=O)O)C(=O)N[C@@H](Cc1ccc(O)cc1)C(=O)N[C@@H](CO)C(=O)N[C@H](C(=O)NC(C)(C)C(=O)N[C@@H](CC(C)C)C(=O)N[C@@H](CC(=O)O)C(=O)N[C@@H](CCCCN)C(=O)N[C@H](C(=O)N[C@@H](C)C(=O)N[C@@H](CCC(N)=O)C(=O)N[C@@H](CCCCNC(=O)COCCOCCNC(=O)COCCOCCNC(=O)CC[C@H](NC(=O)CCCCCCCCCCCCCCCCCCC(=O)O)C(=O)O)C(=O)N[C@@H](C)C(=O)N[C@@H](Cc1ccccc1)C(=O)N[C@H](C(=O)N[C@@H](CCC(N)=O)C(=O)N[C@@H](Cc1c[nH]c2ccccc12)C(=O)N[C@@H](CC(C)C)C(=O)N[C@H](C(=O)N[C@@H](C)C(=O)NCC(=O)NCC(=O)N1CCC[C@H]1C(=O)N[C@@H](CO)C(=O)N[C@@H](CO)C(=O)NCC(=O)N[C@@H](C)C(=O)N1CCC[C@H]1C(=O)N1CCC[C@H]1C(=O)N1CCC[C@H]1C(=O)N[C@@H](CO)C(N)=O)[C@@H](C)CC)C(C)C)[C@@H](C)CC)[C@@H](C)CC)[C@@H](C)O)[C@@H](C)O [Compound 281] ({NHPr-CO}-[Aib][βAla]EGTFTSDYSI[Aib]LDKIAQK([AEEA-AEEA-γGlu-C20 diacid])AFVQWLIAGGPSSGAPPPS-NH2) | 0.1 to 1 | 95 | 1 to 10 | 108 | > 1000 | > 1000 |
